We go through two compounds from patent US11806317B2, “Composition capable of promoting testosterone secretion and use thereof” (TCI CO., LTD, priority 2017, dated 2023).

In the assay the test system is mouse Leydig cells (TM3 cells, ATCC CRL1714). In words: Test of effects of plant extracts or combinations of components on testosterone secretion (testosterone ELISA of culture supernatant). Particulars: 24 hours, control 100%. It is filed as cell-based. As to the method:
500 μl of the cell culture medium was added to each well of a 24-well plate to have 2×10^4 TM3 cells per well, and cultured at 37° C. for 24 hours. After the cells were adhered, the original medium was removed, and 500 μl of the aforementioned fresh cell culture medium was added.
The samples were then divided into two groups, of which group A was the control group, and no plant extracts or other test components were added. Group B was the test group. […] After that, the condition of the amount of testosterone secretion was analyzed. The doses shown in the tables are the doses of the single extract, or the combination of the extracts.
First, 50 μl of the supernatant of the culture medium after the reaction of each of the above groups was taken out, and the testosterone ELISA test kit (USCN, Cat# CEA458Ge) was used to detect the testosterone concentration. The detected values were then analyzed by Microsoft Excel software using Student's t-test to determine whether there is statistical significance between the two samples (* indicates p-value <0.05; ** indicates p-value <0.01; *** indicates p-value <0.001).

The mark [1] stands for this setting: dose 0.125 mg/ml (single extract/component or 1:1 combination).
[2] abbreviates: dose 0.25 mg/ml (single extract/component or 1:1 combination).

For the compound `CC(C)=CCC/C(C)=C/C=C/C(C)=C/C=C/C(C)=C/C=C/C=C(C)/C=C/C=C(C)/C=C/C=C(\C)CCC=C(C)C` [lycopene], the “Testosterone secretion relative to control” value reads like this: under setting [1], 99.94%; under setting [2], 104.02%.
As for `CC1=C(/C=C/C(C)=C/C=C/C(C)=C/C=C/C=C(C)/C=C/C=C(C)/C=C/C2=C(C)CCCC2(C)C)C(C)(C)CCC1` [beta carotene], the “Testosterone secretion relative to control” value is listed as 66.21% (dose 0.03125 mg/ml (single extract/component or 1:1 combination)), 103.79% under setting [1] and 111.42% under setting [2].
